Source: PMC8903829 (eLife, 2022)

Columns and labels:
[1] = biological target: T1, hNaV1.6 (Homo sapiens, UniProt Q9UQD0); experiment: Qube 384 automated patch-clamp, inactivated-state inhibition; format: cell-based; details: for hNav1.6 current in (352)/(Vehicle), mean: Inactivated (-45mV)
T1 construct: expression vector containing the full-length cDNA coding for specific human and mouse sodium channel α-subunit; expressed in transfected cells

[2] = biological target: T2, hNaV1.2 (Homo sapiens, UniProt Q99250); experiment: as above; format: cell-based
T2 construct: expression vector containing the full-length cDNA coding for specific human and mouse sodium channel α-subunit; expressed in transfected cells
From the text: (§1) All of the cell lines tested negative for mycoplasma.
(§2) Inorm(CPD)=(ICPD−Icontrol)/(ITTX−Icontrol).

[3] = biological target: T3, hNaV1.3 (Homo sapiens, UniProt Q9NY46); experiment: as above; format: cell-based
T3 construct: expression vector containing the full-length cDNA coding for specific human and mouse sodium channel α-subunit; expressed in transfected cells
From the text: as §1, §2

[4] = biological target: T4, hNaV1.7 (Homo sapiens, UniProt Q15858); experiment: as above; format: cell-based
T4 construct: expression vector containing the full-length cDNA coding for specific human and mouse sodium channel α-subunit; expressed in transfected cells
From the text: as §1, §2

[5] = biological target: T5, mNaV1.1 (Mus musculus, UniProt A2APX8); experiment: as above; format: cell-based
T5 construct: expression vector containing the full-length cDNA coding for specific human and mouse sodium channel α-subunit; expressed in transfected cells
From the text: as §1, §2

[6] = biological target: T6, mNaV1.2 (Mus musculus, UniProt B1AWN6); experiment: as above; format: cell-based
T6 construct: expression vector containing the full-length cDNA coding for specific human and mouse sodium channel α-subunit; expressed in transfected cells
From the text: as §1, §2

[7] = biological target: T7, mNaV1.6 (Mus musculus, UniProt Q9WTU3); experiment: as above; format: cell-based
T7 construct: expression vector containing the full-length cDNA coding for specific human and mouse sodium channel α-subunit; expressed in transfected cells

[8] = biological target: T1, hNaV1.6; experiment: Automated patch-clamp, rested state 'Peak' current (Vh -120 mV); format: cell-based
From the text: Holding the membrane potential at –120 mV induces most channels to reside in the resting state. […] Holding the membrane potential at –45 mV encourages channels to transition into inactivated states. Brief hyperpolarizations allow rapid recovery from inactivation for channels that are not bound to drug followed by a short 20ms test pulse to –20 mV to measure currents from unbound channels (see Materials and methods for details).
as §2

[9] = biological target: T1, hNaV1.6; experiment: V0.5 assay (holding potential -62 mV); format: cell-based; details: V0.5 assay -62 mV
[10] = biological target: hNaV1.4 (Homo sapiens, UniProt P35499); experiment: Qube 384 automated patch-clamp, inactivated-state inhibition

T7 sequence (Q9WTU3 whole entry): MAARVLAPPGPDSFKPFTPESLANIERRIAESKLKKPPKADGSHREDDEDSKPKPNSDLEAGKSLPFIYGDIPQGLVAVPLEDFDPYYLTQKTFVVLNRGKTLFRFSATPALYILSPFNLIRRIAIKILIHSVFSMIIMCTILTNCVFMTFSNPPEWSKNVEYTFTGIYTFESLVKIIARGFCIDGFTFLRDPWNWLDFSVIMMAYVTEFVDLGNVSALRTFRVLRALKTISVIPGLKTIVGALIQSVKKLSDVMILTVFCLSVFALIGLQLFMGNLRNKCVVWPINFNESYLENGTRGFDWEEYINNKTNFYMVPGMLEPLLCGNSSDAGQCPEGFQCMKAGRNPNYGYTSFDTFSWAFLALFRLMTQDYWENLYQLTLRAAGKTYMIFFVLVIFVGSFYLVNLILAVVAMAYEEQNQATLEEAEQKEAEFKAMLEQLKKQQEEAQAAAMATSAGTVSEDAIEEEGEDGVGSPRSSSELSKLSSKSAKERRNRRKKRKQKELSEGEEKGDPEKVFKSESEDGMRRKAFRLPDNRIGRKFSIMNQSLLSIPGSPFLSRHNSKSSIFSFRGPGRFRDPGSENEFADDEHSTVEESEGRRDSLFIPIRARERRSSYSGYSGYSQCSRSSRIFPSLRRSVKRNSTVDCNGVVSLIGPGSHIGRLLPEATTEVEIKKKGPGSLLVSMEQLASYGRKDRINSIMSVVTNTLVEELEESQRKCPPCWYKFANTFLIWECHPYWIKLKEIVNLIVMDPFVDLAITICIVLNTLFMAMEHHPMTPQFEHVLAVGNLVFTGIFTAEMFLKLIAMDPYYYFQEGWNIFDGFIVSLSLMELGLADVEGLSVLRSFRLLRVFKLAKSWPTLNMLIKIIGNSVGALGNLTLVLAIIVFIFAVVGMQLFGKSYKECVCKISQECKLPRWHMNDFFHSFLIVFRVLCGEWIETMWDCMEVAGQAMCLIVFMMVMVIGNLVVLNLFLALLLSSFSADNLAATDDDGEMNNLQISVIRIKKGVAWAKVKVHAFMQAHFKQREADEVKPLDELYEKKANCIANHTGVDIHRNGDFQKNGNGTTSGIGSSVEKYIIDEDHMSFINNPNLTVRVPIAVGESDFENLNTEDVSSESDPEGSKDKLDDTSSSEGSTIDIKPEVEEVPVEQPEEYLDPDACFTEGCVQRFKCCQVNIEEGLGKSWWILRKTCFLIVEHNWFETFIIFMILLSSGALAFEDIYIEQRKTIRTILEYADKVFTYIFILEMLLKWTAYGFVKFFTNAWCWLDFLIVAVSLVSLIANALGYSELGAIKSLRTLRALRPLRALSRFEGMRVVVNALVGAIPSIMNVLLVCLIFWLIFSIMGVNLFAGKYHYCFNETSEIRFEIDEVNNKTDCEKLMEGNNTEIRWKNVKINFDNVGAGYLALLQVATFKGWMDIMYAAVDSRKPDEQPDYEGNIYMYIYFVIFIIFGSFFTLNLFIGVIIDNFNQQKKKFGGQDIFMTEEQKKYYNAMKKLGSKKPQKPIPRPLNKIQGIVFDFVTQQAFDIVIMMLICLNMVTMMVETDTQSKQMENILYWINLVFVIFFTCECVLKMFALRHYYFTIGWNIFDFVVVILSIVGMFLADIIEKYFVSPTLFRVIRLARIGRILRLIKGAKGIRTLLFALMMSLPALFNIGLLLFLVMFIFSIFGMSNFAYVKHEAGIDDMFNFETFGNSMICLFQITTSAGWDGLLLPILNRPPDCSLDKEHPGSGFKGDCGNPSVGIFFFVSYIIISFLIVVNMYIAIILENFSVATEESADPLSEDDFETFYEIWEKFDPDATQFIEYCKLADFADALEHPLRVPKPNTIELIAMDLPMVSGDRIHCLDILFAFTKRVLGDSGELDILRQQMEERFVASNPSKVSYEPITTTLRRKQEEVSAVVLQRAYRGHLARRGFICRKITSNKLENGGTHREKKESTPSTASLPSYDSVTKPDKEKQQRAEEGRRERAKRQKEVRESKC
T7 sequence (Q92913 1-192 isoform Q92913-2 partner): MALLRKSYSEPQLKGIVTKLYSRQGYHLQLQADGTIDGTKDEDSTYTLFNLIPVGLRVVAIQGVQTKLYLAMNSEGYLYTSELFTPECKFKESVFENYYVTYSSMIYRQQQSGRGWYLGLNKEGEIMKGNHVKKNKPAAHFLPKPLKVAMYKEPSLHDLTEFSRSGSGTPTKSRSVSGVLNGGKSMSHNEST
T3 sequence (Q9NY46 whole entry): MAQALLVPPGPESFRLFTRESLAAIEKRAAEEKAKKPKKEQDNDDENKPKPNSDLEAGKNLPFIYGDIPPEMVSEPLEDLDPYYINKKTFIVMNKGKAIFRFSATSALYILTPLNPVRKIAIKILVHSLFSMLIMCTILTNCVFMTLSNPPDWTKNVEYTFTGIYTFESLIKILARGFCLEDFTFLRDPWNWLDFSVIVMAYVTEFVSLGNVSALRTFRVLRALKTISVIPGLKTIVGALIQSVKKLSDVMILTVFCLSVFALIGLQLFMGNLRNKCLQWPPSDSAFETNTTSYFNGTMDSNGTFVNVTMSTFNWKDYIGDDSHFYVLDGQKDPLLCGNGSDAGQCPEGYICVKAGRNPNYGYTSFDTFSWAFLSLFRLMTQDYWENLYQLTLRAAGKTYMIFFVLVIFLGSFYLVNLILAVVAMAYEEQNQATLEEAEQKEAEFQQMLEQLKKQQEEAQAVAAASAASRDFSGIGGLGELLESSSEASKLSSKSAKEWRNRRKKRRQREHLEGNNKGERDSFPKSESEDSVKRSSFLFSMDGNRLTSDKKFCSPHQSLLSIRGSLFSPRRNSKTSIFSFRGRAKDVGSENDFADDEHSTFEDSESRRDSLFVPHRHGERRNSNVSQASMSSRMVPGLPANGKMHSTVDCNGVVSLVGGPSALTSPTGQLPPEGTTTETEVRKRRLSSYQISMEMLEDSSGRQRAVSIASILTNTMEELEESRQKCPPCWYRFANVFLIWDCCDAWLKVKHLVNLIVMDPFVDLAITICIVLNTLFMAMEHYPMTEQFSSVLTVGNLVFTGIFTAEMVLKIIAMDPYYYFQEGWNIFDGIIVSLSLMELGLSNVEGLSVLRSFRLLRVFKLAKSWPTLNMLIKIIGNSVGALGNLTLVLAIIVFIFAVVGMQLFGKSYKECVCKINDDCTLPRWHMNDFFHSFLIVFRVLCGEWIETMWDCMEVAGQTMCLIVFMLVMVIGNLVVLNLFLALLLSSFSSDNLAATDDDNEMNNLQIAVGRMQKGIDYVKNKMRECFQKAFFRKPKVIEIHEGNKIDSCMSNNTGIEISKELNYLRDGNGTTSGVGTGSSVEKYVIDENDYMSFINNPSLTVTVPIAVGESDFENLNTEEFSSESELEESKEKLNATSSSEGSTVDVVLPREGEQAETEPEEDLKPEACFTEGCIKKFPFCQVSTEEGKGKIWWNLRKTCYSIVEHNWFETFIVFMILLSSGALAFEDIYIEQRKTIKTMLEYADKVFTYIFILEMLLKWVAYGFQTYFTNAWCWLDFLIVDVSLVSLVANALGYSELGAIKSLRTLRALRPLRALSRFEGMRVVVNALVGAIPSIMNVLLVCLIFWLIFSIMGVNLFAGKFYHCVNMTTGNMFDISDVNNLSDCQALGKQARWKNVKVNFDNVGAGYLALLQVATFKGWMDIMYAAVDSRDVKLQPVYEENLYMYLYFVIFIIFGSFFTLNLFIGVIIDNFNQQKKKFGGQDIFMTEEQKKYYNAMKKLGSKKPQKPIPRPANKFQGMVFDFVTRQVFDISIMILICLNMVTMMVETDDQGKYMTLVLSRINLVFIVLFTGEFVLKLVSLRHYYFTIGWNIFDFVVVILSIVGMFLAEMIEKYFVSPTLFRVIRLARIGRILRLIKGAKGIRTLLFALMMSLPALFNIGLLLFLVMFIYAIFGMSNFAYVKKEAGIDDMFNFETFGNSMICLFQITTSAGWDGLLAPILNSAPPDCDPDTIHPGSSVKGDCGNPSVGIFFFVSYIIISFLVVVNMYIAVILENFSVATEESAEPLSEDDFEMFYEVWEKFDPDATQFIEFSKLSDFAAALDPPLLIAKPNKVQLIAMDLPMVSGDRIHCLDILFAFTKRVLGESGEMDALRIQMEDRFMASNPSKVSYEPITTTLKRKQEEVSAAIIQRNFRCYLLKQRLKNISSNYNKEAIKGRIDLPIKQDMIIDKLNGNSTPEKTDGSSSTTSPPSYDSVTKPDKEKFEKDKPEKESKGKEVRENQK

Cc1cc(S(=O)(=O)Nc2cscn2)c(F)cc1N(C)[C@H]1CCN(Cc2ccccc2)C1 [NBI-921352]
IC50 [1]: 0.051 µM | hNav1.6 current in (352)/(Vehicle), mean ([1]; -5 Log M): 0.96 | hNav1.6 current in (352)/(Vehicle), mean ([1]; -5.47716 Log M): 0.91 | hNav1.6 current in (352)/(Vehicle), mean ([1]; -5.95429 Log M): 0.87 | hNav1.6 current in (352)/(Vehicle), mean ([1]; -6.47756 Log M): 0.83 | hNav1.6 current in (352)/(Vehicle), mean ([1]; -6.91009 Log M): 0.68 | hNav1.6 current in (352)/(Vehicle), mean ([1]; -6.95468 Log M): 0.66 | hNav1.6 current in (352)/(Vehicle), mean ([1]; -7.38722 Log M): 0.57 | hNav1.6 current in (352)/(Vehicle), mean ([1]; -7.4318 Log M): 0.52 | hNav1.6 current in (352)/(Vehicle), mean ([1]; -7.85387 Log M): 0.25 | hNav1.6 current in (352)/(Vehicle), mean ([1]; -8.30103 Log M): 0.16 | hNav1.6 current in (352)/(Vehicle), mean ([1]; -8.39794 Log M): 0.12 | hNav1.6 current in (352)/(Vehicle), mean ([1]; -9.34679 Log M): 0.01 | hNav1.2 current (352)/(Vehicle), mean ([2]; -4 Log M): 0.88 | hNav1.2 current (352)/(Vehicle), mean ([2]; -4.47713 Log M): 0.78 | hNav1.2 current (352)/(Vehicle), mean ([2]; -4.95425 Log M): 0.6 | hNav1.2 current (352)/(Vehicle), mean ([2]; -5 Log M): 0.66 | hNav1.2 current (352)/(Vehicle), mean ([2]; -5.43133 Log M): 0.42 | hNav1.2 current (352)/(Vehicle), mean ([2]; -5.47716 Log M): 0.44 | hNav1.2 current (352)/(Vehicle), mean ([2]; -5.90833 Log M): 0.21 | hNav1.2 current (352)/(Vehicle), mean ([2]; -5.95429 Log M): 0.14 | hNav1.2 current (352)/(Vehicle), mean ([2]; -6.3851 Log M): 0.11 | hNav1.2 current (352)/(Vehicle), mean ([2]; -6.86328 Log M): 0.04 | hNav1.2 current (352)/(Vehicle), mean ([2]; -6.91009 Log M): 0.03 | hNav1.2 current (352)/(Vehicle), mean ([2]; -7.33724 Log M): 0.01 | hNav1.2 current (352)/(Vehicle), mean ([2]; -7.38722 Log M): 0 | hNav1.2 current (352)/(Vehicle), mean ([2]; -7.85387 Log M): 0.01 | hNav1.2 current (352)/(Vehicle), mean ([2]; -8.30103 Log M): 0.01 | IC50 ([2]; Vh -45 mV, HEK-293): 6.9 µM | inhibition at 30 µM ([3]; 30 µM, NaV1.3, read-out: inhibition at the highest concentration tested): < 50% | hNaV1.3 current (352)/(Vehicle), mean ([3]; -4.52288 Log M): 0.17 | hNaV1.3 current (352)/(Vehicle), mean ([3]; -5 Log M): 0.03 | hNaV1.3 current (352)/(Vehicle), mean ([3]; -5.47716 Log M): 0.01 | hNaV1.3 current (352)/(Vehicle), mean ([3]; -5.95429 Log M): -0.01 | hNaV1.3 current (352)/(Vehicle), mean ([3]; -6.91009 Log M): 0.01 | hNaV1.3 current (352)/(Vehicle), mean ([3]; -7.38722 Log M): 0.02 | hNaV1.3 current (352)/(Vehicle), mean ([3]; -7.85387 Log M): -0.01 | IC50 ([3]; Vh -45 mV, HEK-293): > 30 µM | hNav1.7 current (352)/(Vehicle), mean ([4]; -4.52288 Log M): 0.74 | hNav1.7 current (352)/(Vehicle), mean ([4]; -5 Log M): 0.41 | hNav1.7 current (352)/(Vehicle), mean ([4]; -5.47716 Log M): 0.2 | hNav1.7 current (352)/(Vehicle), mean ([4]; -5.95429 Log M): 0.08 | hNav1.7 current (352)/(Vehicle), mean ([4]; -6.91009 Log M): 0.02 | hNav1.7 current (352)/(Vehicle), mean ([4]; -7.38722 Log M): 0.01 | hNav1.7 current (352)/(Vehicle), mean ([4]; -7.85387 Log M): 0.02 | hNav1.7 current (352)/(Vehicle), mean ([4]; -8.30103 Log M): -0.02 | IC50 ([4]; Vh -60 mV, HEK-293): 14 µM | mNaV1.1 current (352)/(Vehicle) ([5]; -4.22185 Log M): 0.61 | mNaV1.1 current (352)/(Vehicle) ([5]; -4.69897 Log M): 0.28 | mNaV1.1 current (352)/(Vehicle) ([5]; -5.17607 Log M): 0.19 | mNaV1.1 current (352)/(Vehicle) ([5]; -5.65326 Log M): 0.12 | mNaV1.1 current (352)/(Vehicle) ([5]; -6.13018 Log M): 0.05 | mNaV1.1 current (352)/(Vehicle) ([5]; -6.6073 Log M): -0.03 | mNaV1.1 current (352)/(Vehicle) ([5]; -7.08619 Log M): -0.01 | mNaV1.1 current (352)/(Vehicle) ([5]; -7.56864 Log M): 0 | IC50 ([5]; Vh -45 mV): 41 µM | mNaV1.2 current (352)/(Vehicle) ([6]; -4.22185 Log M): 0.86 | mNaV1.2 current (352)/(Vehicle) ([6]; -4.69897 Log M): 0.58 | mNaV1.2 current (352)/(Vehicle) ([6]; -5.17607 Log M): 0.39 | mNaV1.2 current (352)/(Vehicle) ([6]; -5.65326 Log M): 0.19 | mNaV1.2 current (352)/(Vehicle) ([6]; -6.13018 Log M): 0.14 | mNaV1.2 current (352)/(Vehicle) ([6]; -6.6073 Log M): 0.04 | mNaV1.2 current (352)/(Vehicle) ([6]; -7.08619 Log M): 0.08 | mNaV1.2 current (352)/(Vehicle) ([6]; -7.56864 Log M): 0.05 | IC50 ([6]; Vh -45 mV): 11 µM | mNaV1.6 current (352)/(Vehicle) ([7]; -5 Log M): 0.92 | mNaV1.6 current (352)/(Vehicle) ([7]; -5.47716 Log M): 0.9 | mNaV1.6 current (352)/(Vehicle) ([7]; -5.95429 Log M): 0.84 | mNaV1.6 current (352)/(Vehicle) ([7]; -6.91009 Log M): 0.63 | mNaV1.6 current (352)/(Vehicle) ([7]; -7.38722 Log M): 0.48 | mNaV1.6 current (352)/(Vehicle) ([7]; -7.85387 Log M): 0.27 | mNaV1.6 current (352)/(Vehicle) ([7]; -8.30103 Log M): 0.12 | IC50 ([7]; Vh -45 mV): 0.058 µM | IC50 [8]: 36 µM | hNav1.6 current in (352)/(Vehicle), Rested (-120mV), mean ([8]; -4 Log M): 0.8706 | hNav1.6 current in (352)/(Vehicle), Rested (-120mV), mean ([8]; -4.47713 Log M): 0.4353 | hNav1.6 current in (352)/(Vehicle), Rested (-120mV), mean ([8]; -4.95425 Log M): 0.1765 | hNav1.6 current in (352)/(Vehicle), Rested (-120mV), mean ([8]; -5.43133 Log M): 0.09412 | hNav1.6 current in (352)/(Vehicle), Rested (-120mV), mean ([8]; -5.90833 Log M): -0.01176 | hNav1.6 current in (352)/(Vehicle), Rested (-120mV), mean ([8]; -6.3851 Log M): -0.02353 | hNav1.6 current in (352)/(Vehicle), Rested (-120mV), mean ([8]; -6.86328 Log M): 0.1176 | hNav1.6 current in (352)/(Vehicle), Rested (-120mV), mean ([8]; -7.33724 Log M): 0.05882 | Fraction of hNav1.6 current blocked, mean ([9]; 0.0046 µM): -0.01128 | Fraction of hNav1.6 current blocked, mean ([9]; 0.0137 µM): 0.1547 | Fraction of hNav1.6 current blocked, mean ([9]; 0.0412 µM): 0.4966 | Fraction of hNav1.6 current blocked, mean ([9]; 0.123 µM): 0.6688 | Fraction of hNav1.6 current blocked, mean ([9]; 0.37 µM): 0.8319 | Fraction of hNav1.6 current blocked, mean ([9]; 1.11 µM): 0.9499 | Fraction of hNav1.6 current blocked, mean ([9]; 3.33 µM): 0.9695 | Fraction of hNav1.6 current blocked, mean ([9]; 10 µM): 0.9977 | IC50 [10]: > 30 µM | inhibition at 30 µM ([10]; read-out: inhibition at the highest concentration tested): < 50%
